Measurements reported in patent publication US8518952B2, “6 substituted 2-heterocyclylamino pyrazine compounds as CHK-1 inhibitors” (Pfizer Inc., priority 2008, dated 2013).
pEC50, pKi: −log10 of the molar value. Where two headings read alike, the source gives them in different places.

Legend:
CHK1 (kinase domain) = target: T1, CHK1 (kinase domain) (Homo sapiens, UniProt O14757); assay: CHK1 Ki determination, spectrophotometric coupled (pyruvate kinase/lactate dehydrogenase) assay; format: biochemical; settings: CHK-1 kinase domain; for pKi: 150 uM ATP, 125 uM Syntide 2
T1 construct: a solution containing 1 nM of CHK1 (kinase domain)
T1 sequence (O14757 9-265 limits assumed): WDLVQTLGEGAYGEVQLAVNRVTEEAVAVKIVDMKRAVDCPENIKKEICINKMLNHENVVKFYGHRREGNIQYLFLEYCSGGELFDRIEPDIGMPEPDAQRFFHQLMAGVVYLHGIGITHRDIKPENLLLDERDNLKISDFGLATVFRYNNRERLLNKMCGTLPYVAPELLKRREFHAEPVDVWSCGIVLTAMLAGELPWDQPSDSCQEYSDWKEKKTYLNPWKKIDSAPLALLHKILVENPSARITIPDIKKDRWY
Procedure: After 15 min pre-incubation, the enzymatic reaction was initiated by the simultaneous addition of Syntide 2 peptide (125 uM, final concentration) and ATP (150 uM, final concentration). The kinase-catalyzed production of ADP from ATP that accompanied phosphoryl transfer to the substrate Syntide 2 was coupled to the oxidation of NADH through the activities of pyruvate kinase and lactate dehydrogenase. NADH conversion to NAD^+ was monitored by the decrease in absorbance at 340 nm (ε=6.22 cm^−1 mM^−1) using a microplate reader from Molecular Devices Spectormax Plus (Sunnyvale, Calif.) or BMG LABTECH Inc (Offenburg, Germany).
The inhibition of CHK1 was analyzed by fitting the data to the following equation to determine Kiapp:
[formula] where [E]o and [I]o are the active enzyme and inhibitor concentration, respectively; Ki is the inhibition binding constant and Km the Michaelis-Menten constant for ATP; Vi and Vo are the rates of substrate oxidation in the presence of and in the absence of inhibitor, respectively. EC50 Determination (Cellular Assay)
(§1) Under the “Ki” column, data entries in the format of “%” are percent inhibition data where no Ki data is available. Data entry under the “EC50” column with an * are data obtained using Mia Paca-2 cells rather than HeLa cells. Data is not available where noted as n/a.

HeLa cells = assay: Histone H3 (Ser10) phosphorylation ELISA, abrogation of camptothecin-induced G2 arrest (CHK-1 cellular assay); format: cell-based; settings: Homo sapiens, HeLa cells, camptothecin 8 hrs, then compound with nocodozole 16 hours, read-out: EC50
Procedure: The Histone H3 phosphorylation ELISA assay detects cells entering mitosis and represents the primary in vitro cell-based assay used to measure the cellular potency of compounds in abrogating the G2 check point induced by DNA damage in HeLa cells or MiaPaCa cells. The candidate substances were assayed for potency in their ability to inhibit camptothecin-induced G2 arrest, as measured by an increase in Histone H3 phosphorylation on Ser10, a marker of entry into mitosis.
Tissue culture plates were seeded with HeLa cells or MiaPaCa Cells and allowed to attach overnight. The cells were then treated with camptothecin to induce DNA damage for 8 hrs. Candidate substances or diluent were then added in the presence of nocodozole for 16 hours. […] The fresh whole cell lysates were then thawed and added to the ELISA plate with shaking for 3 hours. Between all subsequent steps plates were washed 4 times with PBST. Biotinylated phospho Histone H3 (ser10) detection antibody was added for 1 hour, followed by addition of horseradish peroxidase-linked streptavidin secondary antibody for 1 hour. Color development of the antibody was performed with addition of TMB substrate and incubation for 2 minutes on a plate shaker. […] EC50 values were calculated by sigmoid curve fitting using a four-parameter analysis.
as §1

| Compound | percent inhibition (where no Ki data is available) (CHK1 (kinase domain); inhibitor concentration not given) [%^] | pEC50 (HeLa cells) | pKi (CHK1 (kinase domain)) | pEC50 (HeLa cells; HeLa) |
| --- | --- | --- | --- | --- |
| c1cnc2c(-c3cncc(N[C@@H]4CCCNC4)n3)cnn2c1 [Example 23, N-[(3R)-piperidin-3-yl]-6-pyrazolo[1,5-a]pyrimidin-3-ylpyrazin-2-amine] | 36.1 | ≤ 5.00 |  |  |
| FC(F)[C@@H]1C[C@@H](Nc2cncc(-c3cnc4ccccn34)n2)CN1 [Example 25, N-[(3R,5S)-5-(difluoromethyl)pyrrolidin-3-yl]-6-(imidazo[1,2-a]pyridin-3-yl)pyrazin-2-amine] |  |  | 7.15 | ≤ 5.00 |
| F[C@@H]1CCNC[C@@H]1Nc1cncc(-c2cnc3ccccn23)n1 [Example 27, N-[(3S,4R)-4-fluoropiperidin-3-yl]-6-(imidazo[1,2-a]pyridin-3-yl)pyrazin-2-amine] |  |  | 7.27 | 5.25 |
| F[C@H]1CCNC[C@@H]1Nc1cncc(-c2cnc3ccccn23)n1 [Example 28, N-[(3S,4S)-4-fluoropiperidin-3-yl]-6-imidazo[1,2-a]pyridin-3-ylpyrazin-2-amine] |  |  | 8.32 | 6.69 |
| C[C@H]1CC[C@@H](Nc2cncc(-c3cnc4ccccn34)n2)CN1 [Example 30, 6-imidazo[1,2-a]pyridin-3-yl-N-[(3R,6S)-6-methylpiperidin-3-yl]pyrazin-2-amine] |  |  | 6.83 | 6.20 |
| C[C@@H]1CC[C@@H](Nc2cncc(-c3cnc4ccccn34)n2)CN1 [Example 31, 6-imidazo[1,2-a]pyridin-3-yl-N-[(3R,6R)-6-methylpiperidin-3-yl]pyrazin-2-amine] |  |  | 7.56 | 6.74 |
| C[C@@H]1CNC[C@@H]1Nc1cncc(-n2cnc3cc(-c4cnn(C)c4)ccc32)n1 [Example 34, 6-[5-(1-methyl-1H-pyrazol-4-yl)-1H-benzimidazol-1-yl]-N-[(3R,4R)-4-methylpyrrolidin-3-yl]pyrazin-2-amine] |  |  | 8.47 | 7.54 |
| CCO[C@H]1CCNC[C@@H]1Nc1cncc(-c2cnc3ccccn23)n1 [Example 35, N-[(3S,4S)-4-ethoxypiperidin-3-yl]-6-(imidazo[1,2-a]pyridin-3-yl)pyrazin-2-amine] |  |  | 8.41 | 7.39 |
| Cc1ccn2c(-c3cncc(N[C@@H]4CCCNC4)n3)cnc2c1 [Example 38, 6-(7-Methylimidazo[1,2-a]pyridin-3-yl)-N-[(3R)-piperidin-3-yl]pyrazin-2-amine] |  |  | 8.10 | 7.40 |
| FC(F)(F)c1ccc2ncc(-c3cncc(N[C@@H]4CCCNC4)n3)n2c1 [Example 39, N-[(3R)-piperidin-3-yl]-6-[6-(trifluoromethyl)imidazo[1,2-a]pyridin-3-yl]pyrazin-2-amine] |  |  | 7.77 | 6.17 |
| FC(F)(F)c1ccn2c(-c3cncc(N[C@@H]4CCCNC4)n3)cnc2c1 [Example 40, N-[(3R)-piperidin-3-yl]-6-[7-(trifluoromethyl)imidazo[1,2-a]pyridin-3-yl]pyrazin-2-amine] |  |  | 8.35 | 6.98 |
| c1cn2c(-c3cncc(N[C@@H]4CCCNC4)n3)cnc2s1 [Example 41, 6-Imidazo[2,1-b][1,3]thiazol-5-yl-N-[(3R)-piperidin-3-yl]pyrazin-2-amine] |  |  | 8.15 | 7.59 |
| CCc1ccn2c(-c3cncc(N[C@@H]4CCCNC4)n3)cnc2c1 [Example 42, 6-(7-Ethylimidazo[1,2-a]pyridin-3-yl)-N-[(3R)-piperidin-3-yl]pyrazin-2-amine] |  |  | 8.15 | 7.53 |
| CC(C)c1ccc2ncc(-c3cncc(N[C@@H]4CCCNC4)n3)n2c1 [Example 43, 6-(6-Isopropylimidazo[1,2-a]pyridin-3-yl)-N-[(3R)-piperidin-3-yl]pyrazin-2-amine] |  |  | 8.17 | 7.19 |
| Clc1ccn2c(-c3cncc(N[C@@H]4CCCNC4)n3)cnc2c1 [Example 44, 6-(7-Chloroimidazo[1,2-a]pyridin-3-yl)-N-[(3R)-piperidin-3-yl]pyrazin-2-amine] |  |  | 8.60 | 7.68 |
| CC1(COc2ccc3c(c2)ncn3-c2cncc(N[C@@H]3CCCNC3)n2)COC1 [Example 47, 6-{5-[(3-Methyloxetan-3-yl)methoxy]-1H-benzimidazol1-yl}-N-[(3R)-piperidin-3-yl]pyrazin-2-amine] |  |  | 7.61 | 7.28 |

| Compound | percent inhibition (where no Ki data is available) (CHK1 (kinase domain); inhibitor concentration not given) [%^] | pEC50 (HeLa cells) | pKi (CHK1 (kinase domain)) | pEC50 (HeLa cells; HeLa) |
| --- | --- | --- | --- | --- |
| c1ccn2c(-c3cncc(N[C@H]4CCNC4)n3)cnc2c1 [Example 48, 6-Imidazo[1,2-a]pyridin-3-yl-N-[(3S)-pyrrolidin-3-yl]pyrazin-2-amine] |  |  | 6.78 | 6.22 |
| c1cn2c(-c3cncc(N[C@@H]4CCNC4)n3)cnc2s1 [Example 49, 6-Imidazo[2,1-b][1,3]thiazol-5-yl-N-[(3R)-pyrrolidin-3-yl]pyrazin-2-amine] |  |  | 7.93 | 6.85 |
| Cc1ccc2ncc(-c3cncc(N[C@@H]4CCNC4)n3)n2c1 [Example 50, 6-(6-Methylimidazo[1,2-a]pyridin-3-yl)-N-[(3R)-pyrrolidin-3-yl]pyrazin-2-amine] |  |  | 7.76 | 6.83 |
| Cc1ccn2c(-c3cncc(N[C@@H]4CCNC4)n3)cnc2c1 [Example 51, 6-(7-Methylimidazo[1,2-a]pyridin-3-yl)-N-[(3R)-pyrrolidin-3-yl]pyrazin-2-amine] |  |  | 8.02 | 7.02 |
| COc1ccn2c(-c3cncc(N[C@@H]4CCNC4)n3)cnc2c1 [Example 52, 6-(7-Methoxyimidazo[1,2-a]pyridin-3-yl)-N-[(3R)-pyrrolidin-3-yl]pyrazin-2-amine] |  |  | 8.02 | 7.14 |
| FC(F)(F)c1ccn2c(-c3cncc(N[C@@H]4CCNC4)n3)cnc2c1 [Example 53, N-[(3R)-pyrrolidin-3-yl]-6-[7-(trifluoromethyl)imidazo[1,2-a]pyridin-3-yl]pyrazin-2-amine] |  |  | 7.43 | 6.34 |
| CC1(Nc2cncc(-c3cnc4ccccn34)n2)CCCNC1 (centres unmarked) [Example 54, 6-Imidazo[1,2-a]pyridin-3-yl-N-(3-methylpiperidin-3-yl)pyrazin-2-amine] |  |  | 6.93 | 5.95 |
| COc1ccc2ncc(-c3cncc(N[C@@H]4CCNC4)n3)n2c1 [Example 55, 6-(6-Methoxyimidazo[1,2-a]pyridin-3-yl)-N-[(3R)-pyrrolidin-3-yl]pyrazin-2-amine] |  |  | 7.64 | 6.64 |
| CCc1ccn2c(-c3cncc(N[C@@H]4CCNC4)n3)cnc2c1 [Example 56, 6-(7-Ethylimidazo[1,2-a]pyridin-3-yl)-N-[(3R)-pyrrolidin-3-yl]pyrazin-2-amine] |  |  | 7.95 | 6.90 |
| CC(C)c1ccc2ncc(-c3cncc(N[C@@H]4CCNC4)n3)n2c1 [Example 57, 6-(6-Isopropylimidazo[1,2-a]pyridin-3-yl)-N-[(3R)-pyrrolidin-3-yl]pyrazin-2-amine] |  |  | 8.22 | 6.43 |
| Cc1cn2c(-c3cncc(N[C@@H]4CCCNC4)n3)cnc2s1 [Example 59, 6-(2-Methylimidazo[2,1-b][1,3]thiazol-5-yl)-N-[(3R)-piperidin-3-yl]pyrazin-2-amine] |  |  | 8.52 | 8.04 |
| c1cnn2c(-c3cncc(N[C@@H]4CCCNC4)n3)cnc2c1 [Example 60, 6-Imidazo[1,2-b]pyridazin-3-yl-N-[(3R)-piperidin-3-yl]pyrazin-2-amine] |  |  | 6.00 | 5.08 |
| Cc1ncc(-c2cncc(N[C@@H]3CCCNC3)n2)n1C [Example 64, 6-(1,2-dimethyl-1H-imidazol-5-yl)-N-[(3R)-piperidin-3-yl]pyrazin-2-amine] |  |  | 5.95 | ≤ 5.00 |
| F[C@H]1CNC[C@@H]1Nc1cncc(-c2cnc3cc(Cl)ccn23)n1 [Example 65, 6-(7-chloroimidazo[1,2-a]pyridin-3-yl)-N-[(3S,4S)-4-fluoropyrrolidin-3-yl]pyrazin-2-amine] |  |  | 7.48 | 6.30 |
| F[C@H]1CNC[C@@H]1Nc1cncc(-c2cnn3ccccc23)n1 [Example 66, N-[(3S,4S)-4-fluoropyrrolidin-3-yl]-6-(pyrazolo[1,5-a]pyridin-3-yl)pyrazin-2-amine] |  |  | 7.90 | 6.46 |
